US20070219186A1, “Pyrazolo[1,5-A]pyrimidine derivatives and methods of use thereof” (priority 2006, published 2007)
pIC50: −log10 of the molar value. Where two headings read alike, the source gives them in different places.

Molecular target: T1, human B-Raf (Homo sapiens, UniProt P15056)
T1 construct: Flag; GST; made in house; host or cells: Sf9 insect cells (B-Raf); E. coli (MEK1-GST)
Assay: B-Raf Kinase to MEK1 ELISA
Format: biochemical
Conditions: for inhibition at 10 µM: read-out: % Inhib./10 uM; for % Inhib./10 uM: single point assay
Procedure, shortened: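 Read-out is a DELFIA europium signal from phospho-MEK1 (Ser217/221) antibody after capture of GST-MEK1 (50 nM final) on anti-GST plates. Phosphorylation comes from Sf9-expressed Flag/GST human B-Raf (~20 ng) with ATP/MgCl2, 60 min RT, pH 7.2 MOPS.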

[1] = median, cpd concentrations from 10 μM to 30 nM in half log dilutions, read-out: Median IC50

T1 sequence (P15056 whole entry): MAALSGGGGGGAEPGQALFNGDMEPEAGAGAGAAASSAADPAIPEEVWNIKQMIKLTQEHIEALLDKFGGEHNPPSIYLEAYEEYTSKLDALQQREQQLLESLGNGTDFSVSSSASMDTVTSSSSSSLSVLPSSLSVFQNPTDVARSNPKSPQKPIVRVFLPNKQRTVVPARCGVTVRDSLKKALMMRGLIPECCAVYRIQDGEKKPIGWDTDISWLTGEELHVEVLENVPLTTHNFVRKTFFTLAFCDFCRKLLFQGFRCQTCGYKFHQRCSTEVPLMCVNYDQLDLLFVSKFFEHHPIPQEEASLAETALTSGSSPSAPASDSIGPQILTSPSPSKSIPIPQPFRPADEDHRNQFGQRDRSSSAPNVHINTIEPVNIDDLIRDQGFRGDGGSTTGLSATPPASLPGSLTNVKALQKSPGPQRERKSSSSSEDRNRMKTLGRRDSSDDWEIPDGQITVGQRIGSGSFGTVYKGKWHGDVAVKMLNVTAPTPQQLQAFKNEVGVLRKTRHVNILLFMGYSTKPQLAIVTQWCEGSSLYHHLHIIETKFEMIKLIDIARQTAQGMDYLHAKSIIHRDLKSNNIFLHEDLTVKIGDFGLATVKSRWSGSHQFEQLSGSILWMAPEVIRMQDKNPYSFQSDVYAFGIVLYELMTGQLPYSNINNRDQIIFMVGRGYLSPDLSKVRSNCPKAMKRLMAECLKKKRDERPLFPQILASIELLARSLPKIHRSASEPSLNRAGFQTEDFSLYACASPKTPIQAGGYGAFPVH

Row | Structure (SMILES) | pIC50 [1] | inhibition at 10 µM [%] | pIC50 | % Inhib./10 uM [%]
1 | CC(=O)NCC(=O)Nc1cccc(-c2cnn3c(-c4cccc(NC(=O)c5cccc(C(F)(F)F)c5)c4)ccnc23)c1 [Example 255, N-[3-(3-{3-[(N-acetylglycyl)amino]phenyl}pyrazolo[1,5-a]pyrimidin-7-yl)phenyl]-3-(trifluoromethyl)benzamide] | 7.31 | 91 |  | 
2 | O=C(Cc1nnn[nH]1)Nc1cccc(-c2cnn3c(-c4cccc(NC(=O)c5cccc(C(F)(F)F)c5)c4)ccnc23)c1 [Example 256, N-[3-(3-{3-[(1H-tetrazol-5-ylacetyl)amino]phenyl}pyrazolo[1,5-a]pyrimidin-7-yl)phenyl]-3-(trifluoromethyl)benzamide] | 6.91 | 97 |  | 
3 | CN(C)CCCNc1cc(-c2cc3nccc(-c4cccc(NC(=O)c5cccc(C(F)(F)F)c5)c4)n3n2)ccn1 [Example 257, N-{3-[2-(2-{[3-(dimethylamino)propyl]amino}pyridin-4-yl)pyrazolo[1,5-a]pyrimidin-7-yl]phenyl}-3-(trifluoromethyl)benzamide] | 7.13 | 97 |  | 
4 | O=C(Nc1cccc(-c2ccnc3cc(-c4ccnc(NCCCN5CCOCC5)c4)nn23)c1)c1cccc(C(F)(F)F)c1 [Example 258, N-[3-(2-{2-[(3-morpholin-4-ylpropyl)amino]pyridin-4-yl}pyrazolo[1,5-a]pyrimidin-7-yl)phenyl]-3-(trifluoromethyl)benzamide] |  |  | 6.87 | 95
5 | O=C(Nc1cccc(-c2ccnc3cc(-c4ccnc(NCCCN5CCCCC5)c4)nn23)c1)c1cccc(C(F)(F)F)c1 [Example 259, N-[3-(2-{2-[(3-piperidin-1-ylpropyl)amino]pyridin-4-yl}pyrazolo[1,5-a]pyrimidin-7-yl)phenyl]-3-(trifluoromethyl)benzamide] | 7.04 | 99 |  | 
6 | O=C(Nc1cccc(-c2ccnc3cc(-c4ccnc(NCCCN5CCCC5=O)c4)nn23)c1)c1cccc(C(F)(F)F)c1 [Example 261, N-{3-[2-(2-{[3-(2-oxopyrrolidin-1-yl)propyl]amino}pyridin-4-yl)pyrazolo[1,5-a]pyrimidin-7-yl]phenyl}-3-(trifluoromethyl)benzamide] |  | 94 | 6.95 | 
7 | O=C(Nc1cccc(-c2ccnc3cc(-c4ccnc(NCCCn5ccnc5)c4)nn23)c1)c1cccc(C(F)(F)F)c1 [Example 262, N-{3-[2-(2-{[3-(1H-imidazol-1-yl)propyl]amino}pyridin-4-yl)pyrazolo[1,5-a]pyrimidin-7-yl]phenyl}-3-(trifluoromethyl)benzamide] | 7.18 | 98 |  | 
8 | O=C(Nc1cccc(-c2ccnc3cc(-c4ccnc(NCCN5CCC(O)CC5)c4)nn23)c1)c1cccc(C(F)(F)F)c1 [Example 263, N-{3-[2-(2-{[2-(4-hydroxypiperidin-1-yl)ethyl]amino}pyridin-4-yl)pyrazolo[1,5-a]pyrimidin-7-yl]phenyl}-3-(trifluoromethyl)benzamide] |  |  | 7.18 | 98
9 | O=C(Nc1cccc(-c2ccnc3cc(-c4ccnc(NCCN5CCCCC5)c4)nn23)c1)c1cccc(C(F)(F)F)c1 [Example 264, N-[3-(2-{2-[(2-piperidin-1-ylethyl)amino]pyridin-4-yl}pyrazolo[1,5-a]pyrimidin-7-yl)phenyl]-3-(trifluoromethyl)benzamide] | 7.02 | 97 |  | 
10 | CN(C)CCNc1cc(-c2cc3nccc(-c4cccc(NC(=O)c5cccc(C(F)(F)F)c5)c4)n3n2)ccn1 [Example 266, N-{3-[2-(2-{[2-(dimethylamino)ethyl]amino}pyridin-4-yl)pyrazolo[1,5-a]pyrimidin-7-yl]phenyl}-3-(trifluoromethyl)benzamide] |  |  | 7.27 | 100
11 | O=C(Nc1cccc(-c2ccnc3cc(-c4ccnc(NCCN5CCNC5=O)c4)nn23)c1)c1cccc(C(F)(F)F)c1 [Example 268, N-{3-[2-(2-{[2-(2-oxoimidazolidin-1-yl)ethyl]amino}pyridin-4-yl)pyrazolo[1,5-a]pyrimidin-7-yl]phenyl}-3-(trifluoromethyl)benzamide] | 6.96 | 96 |  | 
12 | CN(CCCN)c1cc(-c2cc3nccc(-c4cccc(NC(=O)c5cccc(C(F)(F)F)c5)c4)n3n2)ccn1 [Example 269, N-[3-(2-{2-[(3-aminopropyl)(methyl)amino]pyridin-4-yl}pyrazolo[1,5-a]pyrimidin-7-yl)phenyl]-3-(trifluoromethyl)benzamide] | 5.56 | 78 |  | 
13 | CN(CCN)c1cc(-c2cc3nccc(-c4cccc(NC(=O)c5cccc(C(F)(F)F)c5)c4)n3n2)ccn1 [Example 270, N-[3-(2-{2-[(2-aminoethyl)(methyl)amino]pyridin-4-yl}pyrazolo[1,5-a]pyrimidin-7-yl)phenyl]-3-(trifluoromethyl)benzamide] | 5.69 | 80 |  | 
14 | NC(=O)c1cccc(-c2cnn3c(-c4cccc(NC(=O)c5cccc(C(F)(F)F)c5)c4)ccnc23)c1 [Example 271, N-(3-{3-[3-(aminocarbonyl)phenyl]pyrazolo[1,5-a]pyrimidin-7-yl}phenyl)-3-(trifluoromethyl)benzamide] |  | 93 | 7.24 | 
15 | CN(C)Cc1ccccc1-c1cnn2c(-c3cccc(NC(=O)c4cccc(C(F)(F)F)c4)c3)ccnc12 [Example 272, N-[3-(3-{2-[(dimethylamino)methyl]phenyl}pyrazolo[1,5-a]pyrimidin-7-yl)phenyl]-3-(trifluoromethyl)benzamide] | 6.93 | 92 |  | 
16 | CN(C)Cc1cccc(-c2cnn3c(-c4cccc(NC(=O)c5cccc(C(F)(F)F)c5)c4)ccnc23)c1 [Example 273, N-[3-(3-{3-[(dimethylamino)methyl]phenyl}pyrazolo[1,5-a]pyrimidin-7-yl)phenyl]-3-(trifluoromethyl)benzamide] | 7.36 | 97 |  | 
17 | O=C(Nc1cccc(-c2ccnc3c(-c4cn[nH]c4)cnn23)c1)c1cccc(C(F)(F)F)c1 [Example 275, N-{3-[3-(1H-pyrazol-4-yl)pyrazolo[1,5-a]pyrimidin-7-yl]phenyl}-3-(trifluoromethyl)benzamide] |  | 89 | 7.08 | 
18 | CC(C)(C)OC(=O)n1cc(-c2cnn3c(-c4cccc(NC(=O)c5cccc(C(F)(F)F)c5)c4)ccnc23)cn1 [Example 276, tert-butyl 4-[7-(3-{[3-(trifluoromethyl)benzoyl]amino}phenyl)pyrazolo[1,5-a]pyrimidin-3-yl]-1H-pyrazole-1-carboxylate] | 5.69 | 58 |  | 
19 | Nc1ccc(-c2cnn3c(-c4cccc(NC(=O)c5cccc(C(F)(F)F)c5)c4)ccnc23)cn1 [Example 278, N-{3-[3-(6-aminopyridin-3-yl)pyrazolo[1,5-a]pyrimidin-7-yl]phenyl}-3-(trifluoromethyl)benzamide] |  | 96 | 6.95 | 
20 | CN1CCN(CCCC#Cc2cnn3c(-c4cccc(NC(=O)c5cccc(C(F)(F)F)c5)c4)ccnc23)CC1 [Example 279, N-(3-{3-[5-(4-methylpiperazin-1-yl)pent-1-yn-1-yl]pyrazolo[1,5-a]pyrimidin-7-yl}phenyl)-3-(trifluoromethyl)benzamide] |  |  | 6.07 | 
21 | CN(C)CCc1ccccc1-c1cnn2c(-c3cccc(NC(=O)c4cccc(C(F)(F)F)c4)c3)ccnc12 [Example 280, N-[3-(3-{2-[2-(dimethylamino)ethyl]phenyl}pyrazolo[1,5-a]pyrimidin-7-yl)phenyl]-3-(trifluoromethyl)benzamide] | 6.50 | 76 |  | 
22 | CN(C)CCc1cccc(-c2cnn3c(-c4cccc(NC(=O)c5cccc(C(F)(F)F)c5)c4)ccnc23)c1 [Example 281, N-[3-(3-{3-[2-(dimethylamino)ethyl]phenyl}pyrazolo[1,5-a]pyrimidin-7-yl)phenyl]-3-(trifluoromethyl)benzamide] | 7.39 | 98 |  | 
23 | O=C(Nc1cccc(-c2ccnc3c(C#CCCCN4CCOCC4)cnn23)c1)c1cccc(C(F)(F)F)c1 [Example 282, N-{3-[3-(5-morpholin-4-ylpent-1-yn-1-yl)pyrazolo[1,5-a]pyrimidin-7-yl]phenyl}-3-(trifluoromethyl)benzamide] |  | 79 | 6.26 | 
24 | CNc1ccc(-c2cnn3c(-c4cccc(NC(=O)c5cccc(C(F)(F)F)c5)c4)ccnc23)cn1 [Example 284, N-(3-{3-[6-(methylamino)pyridin-3-yl]pyrazolo[1,5-a]pyrimidin-7-yl}phenyl)-3-(trifluoromethyl)benzamide] | 7.11 | 92 |  | 
25 | O=C(Nc1cccc(-c2ccnc3c(-c4ccc(CO)cc4)cnn23)c1)c1cccc(C(F)(F)F)c1 [Example 285, N-(3-{3-[4-(hydroxymethyl)phenyl]pyrazolo[1,5-a]pyrimidin-7-yl}phenyl)-3-(trifluoromethyl)benzamide] |  | 93 | 7.08 | 
26 | O=C(Nc1cccc(-c2ccnc3c(-c4cccc(CO)c4)cnn23)c1)c1cccc(C(F)(F)F)c1 [Example 286, N-(3-{3-[3-(hydroxymethyl)phenyl]pyrazolo[1,5-a]pyrimidin-7-yl}phenyl)-3-(trifluoromethyl)benzamide] |  | 77 | 6.84 | 
27 | O=C(Nc1cccc(-c2ccnc3cc(-c4ccc(Br)cc4)nn23)c1)c1cccc(C(F)(F)F)c1 [Example 287, N-{3-[2-(4-bromophenyl)pyrazolo[1,5-a]pyrimidin-7-yl]phenyl}-3-(trifluoromethyl)benzamide] | < 5.00 | 12 |  | 
28 | CN(C)S(=O)(=O)c1ccc(-c2cnn3c(-c4cccc(NC(=O)c5cccc(C(F)(F)F)c5)c4)ccnc23)cc1 [Example 288, N-[3-(3-{4-[(dimethylamino)sulfonyl]phenyl}pyrazolo[1,5-a]pyrimidin-7-yl)phenyl]-3-(trifluoromethyl)benzamide] | < 5.00 | 35 |  | 
